Reference: US10420747B2 (priority 2016, dated 2019)

Key:
[1] = system: HSP90 and HSP70; assay: Western blotting of AR molecular chaperones; type: cell-based, human; details: LNCaP and 22RV1, 12 hours
Protocol: Cells were lysed and AR, HSP90 and HSP70 protein levels were measured by Western blot analysis.
Lysates were fractionated on polyacrylamide gels and transferred to nitrocellulose. The blots were probed with specific antibodies followed by secondary antibody then membranes were examined using the LI-COR Odyssey infrared imaging system (LI-COR Biotechnology, Lincoln Nebr.). […] The β-actin antibody (1:10000) was purchased from Sigma (St. Louis, Mo.).

[2] = system: CYP2C11, CYP3A1/2 and CYP1A2; details: mouse, in vivo
Protocol: FIG. 6A-FIG. 6H. Pharmacokinetic studies of AIL. […] Images show tumors at harvest (30 days after treatment). Scale bar, 1 cm. […] AIL or vehicle control was measured by Western blotting analysis (D) and the livers were photographed and stained with HE (e). Scale bar, the black scale bar is 1 cm (top) and the white scale bar is 50 μm (bottom). […] Scale bar, 1 cm.

[3] = in vivo; set-up: species or system rat; details: for T1/2: rats
Protocol: A simple and sensitive method for the determination of Ailanthonein plasma was developed, using high-performance liquid chromatography-tandem mass spectrometry (HPLC-MS/MS). Brusatol was used as an internal standard. […] The details of this HPLC-MS/MS method and sample preparation are described in our previous study^37.
The statistical analysis was performed by SPSS 22.0 software. The differences between control group and experimental groups were determined by one-way ANOVA. Since treatment and time course was investigated, two-way ANOVA followed by post hoc test was also applied. Data was expressed as mean and standard deviation (s.d.) and P<0.05 was considered significant. Pharmacokinetic parameters were calculated by WinNonlin software version 5.2.1 (Pharsight Corporation, Mountain View, USA) based on noncompartmental analysis.
Sprague-Dawley rats (purchased from Shanghai SLAC laboratory animal Co. Ltd., Shanghai, China) were fasted for 12 h with free access to water prior to the pharmacokinetic study. The rats were randomized into two groups for oral administration (5 mg/kg) and intravenous injection (1 mg/kg). Blood samples were collected from the orbital plexus into heparinized centrifuge tubes at fifteen different time points between 5 min to 36 h for the oral administration group and nine time points between 5 min to 6 h for the intravenous one. The pharmacokinetic parameters were calculated by WinNonlin software version 5.2.1 based on noncompartmental analysis. Oral bioavailability was calculated as F (%)=AUC0-∞(p.o.)/AUC0-∞(i.v.)×Dose (i.v.)/Dose (p.o.).

[4] = system: VCaP xenografts; assay: Subcutaneous VCaP xenograft model; type: in vivo, mouse; details: 10 mg/kg MDV or 2 mg/kg AIL i.p., 32 days
Protocol: (A-C) 22RV1 (A), LNCaP (B) and Vcap (C) cells were injected with 0.1 ml PBS (22RV1) or Matrigel (LNCaP, Vcap) into the right flank of BALB/c-nude. […] Tumor volume and the mouse body weight were measured once a week. The mice were sacrificed after 28 days (22RV1), 49 days (LNCaP) or 32 days (Vcap) and the tumors from each group of mice were harvested and images were taken. […] Data represent the mean±s.d.
BALB/c-nude mice (6-8 weeks old, male) were purchased from the Sino-British Sippr/BK Lab Animal Co., Ltd (Shanghai, China) and maintained under pathogen-free conditions. The animal use protocol was approved by the Institutional Animal Care and Use Committee of East China Normal University. […] The tumor volume and mouse body weight were measured twice a week. The tumor volume was calculated using the following equation: tumor volume (V)=length×width×width×0.52.
BALB/c-nude mice (6-8 week old, male) were purchased from the Sino-British Sippr/BK Lab Animal Co., Ltd (Shanghai, China) and maintained under pathogen-free conditions. […] The tumor volume and mouse body weight were measured twice a week. The tumor volume was calculated using the following equation: tumor volume (V)=length×width×width×0.52.

[5] = system: 22RV1-luc orthotopic xenografts; assay: Orthotopic castration resistant prostate cancer model; type: in vivo, mouse; details: castrated mice, 2 mgkg^−1 AIL or 10 mgkg^−1 MDV i.p. once per day, 28 days
Protocol: (A,B) The dorsolateral prostate of male BALB/c-nude mice was injected with 1×10^6 22RV1-luc cells in 30 μl matrigel. […] After 28 days, mice were sacrificed and the local tumors were removed and volumes and weight of the tumors were measured (A).
For orthotopic castration resistant prostate cancer xenografts, male BALB/c-nude mice (8-9 weeks of age) were anesthetized using 150 mgkg^−1 2,2,2-tribromethanol plus 350 mgkg^−1 tert-amyl alcohol and then 5×10^5 22RV1-luc cells suspended in 30 μl 50% Matrigel were surgically injected into the dorsolateral prostate lobes. One week after injection, the tumor-bearing mice were castrated and randomly assigned to three groups. […] Prostate tumor growth and local metastasis were monitored weekly using the IVIS Imaging System (Xenogen Corporation, Alameda, Calif.). Images and measurements of bioluminescent signals were acquired and analyzed using LivingImage and Xenogen software^52.

[6] = system: LNCaP cells; assay: SRB cell growth assay, androgen-starved cells with R1881; details: 0.1 nM R1881, 96 hours, 10 μM BIC, 10 μM MDV, 0.1-0.4 μM AIL
[7] = system: LNCaP-MDV3100-R cells; assay: SRB cell growth assay, MDV3100-resistant cells; details: 72 hours, 20 μM BIC, 20 μM MDV, 0.1 μM AIL
Protocol: Cell growth was determined by SRB assay.
The half maximal inhibitory concentration (IC50) was calculated using GraphPad Prism 5.0 (GraphPad, San Diego, Calif.).

[8] = system: c4-2b; assay: SRB cell growth assay, androgen-starved cells with R1881; details: androgen-starved c4-2b, 0.1 nM R1881, 96 hours; 10 μM BIC, 10 μM MDV, 0.1 μM AIL
[9] = system: 22RV1; assay: as above; details: androgen-starved 22RV1, 0.1 nM R1881, 96 hours; 10 μM BIC, 10 μM MDV, 0.1 μM AIL
[10] = system: AR-regulated genes (PSA, TMPRSS2, FKBP5, SLC45A3, NDRG1 mRNA); assay: Quantitative real-time PCR of AR-regulated genes; details: 22RV1 cells, 10 nM R1881, 10 μM MDV or 0.2 μM AIL, 12 hours
Protocol: The genes expression was measured byquantitative-PCR.
Total RNA was extracted using TRIzol (Takara, Japan) according to the manufacturer's instructions. 1 μg of total RNA was used for cDNA synthesis using a cDNA reverse transcription kit (Takara, Japan). Real-time PCR was performed in triplicate using gene-specific primers on a Stratagene Mx3005P PCR system (Agilent Technologies) machine. The mRNA expression levels were normalized to β-actin expression or GAPDH.

[11] = Sprague-Dawley, rat, in vivo, iv, 1 mg/kg
[12] = Sprague-Dawley, rat, in vivo, po, 5 mg/kg

C=CCNC1=C2C[C@@H](C)C[C@H](OC)[C@H](O)[C@@H](C)/C=C(\C)[C@H](OC(N)=O)[C@@H](OC)/C=C\C=C(/C)C(=O)NC(=CC1=O)C2=O [17-AAG]
HSP90 and HSP70 protein levels [1]: induced up-regulation of HSP90 and HSP70 protein

C=C1[C@@H](O)[C@]2(O)OC[C@]34[C@H]2[C@@]2(C)[C@H](O)C(=O)C=C(C)[C@@H]2C[C@H]3OC(=O)C[C@@H]14 [AIL, 11β,20-Epoxy-1β,11,12α-trihydroxypicrasa-3,13(21)-diene-2,16-dione]
expression of CYP enzymes in liver [2]: did not influence the expression | Bioavailability (oral) ([3]; Sprague-Dawley, rat, in vivo): 25.7% | bioavailability ([3]; Sprague-Dawley, rat, in vivo): > 20% | AUC0-t [3, 11]: 57874.3 ± 6871.1 ng·min/mL | AUC0-∞ [3, 11]: 61517.4 ± 5986.2 ng·min/mL | AUC0-t [3, 12]: 67324.5 ± 7405.3 ng·min/mL | AUC0-∞ [3, 12]: 79053.9 ± 14616.6 ng·min/mL | absorption, elimination and distribution after oral administration ([3]; rat, in vivo, po): absorbed quickly, eliminated rapidly and distributed widely in tissues | T1/2 ([3]; i.v. 1 mg kg^−1, mean ± s.d.): 1.888 ± 0.66 h | T1/2 ([3]; p.o. 5 mg kg^−1, mean ± s.d.): 12.17 ± 2.598 h

CNC(=O)c1ccc(N2C(=S)N(c3ccc(C#N)c(C(F)(F)F)c3)C(=O)C2(C)C)cc1F [MDV]
xenograft sensitivity (tumor volume) [4]: still responded | reduction of tumor volume [5]: 15% | cell growth (SRB) [6]: effectively blocked cell growth | cell growth (SRB) [7]: totally resistant | cell growth (SRB) [8]: could not significantly inhibit cell growth | cell growth (SRB) [9]: could not significantly inhibit cell growth | PSA mRNA level in the presence of R1881 [10]: decreased
